Data reported in patent US6821993B1, “Triazepine derivatives as neurotrophic agents” (Ortho-McNeil Pharmaceutical, Inc., priority 2001, dated 2004).

What was measured:
[1] = test system: Dorsal Root Ganglion (DRG); experiment: Dorsal Root Ganglion (DRG) culture neurite outgrowth; assay type: cell-based, rat; conditions: neurite outgrowth from DRG of newborn or 1-day-old CD rats; test compound 50-250 nM; examined on days 1-5
Procedure: DRG were dissected from newborn or 1-day-old CD rats and placed into PBS on ice. After rinsing twice with sterile plating medium, DRG were transferred to empty wells of a 6-well plate coated with polyornithine/laminin (Becton Dickinson Labware) using #7 curved forceps. Three ml/well of plating medium were then added very gently, so as not to disturb the DRG plating medium is Leibovitz's L-15 medium (Gibco), plus 0.6% glucose, 33 mM KCl, 10% FCS, 10 mM Hepes and penicillin/streptomycin/glutamine. After overnight incubation at about 37° C. in 5% CO2, this medium was replaced with 3 mL/well of assay medium [Leibovitz's L-15 medium plus 0.6% glucose, 1% FCS, 1% N-2 supplement (Gibco), 10 μM ara-C, 10 mM Hepes, and penicillin/streptomycin/glutamine] containing either vehicle (DMSO, 1/200,000), positive control (2-4 ng/mL NGF) or test compound (50-250 nM). All media were prepared fresh daily. DRG were microscopically examined for neurite outgrowth on days 1-5.

[2] = test system: Primary Rat Hippocampal Cells; experiment: Neurite outgrowth assay in primary rat hippocampal cells; assay type: cell-based; conditions: MAP-2 immunofluorescence, embryonic day 18 rat hippocampal cells, 7 days in culture
Procedure: Hippocampal cells were dissected from the brains of embryonic day 18 rat pups and dissociated with trypsin (1 mg/mL) and trituration. Cells were seeded at 30,000 cells/well in 96-well plates filled with 100 μL MEM and 10% FBS. At 7 days in culture, cells were fixed with 4% paraformaldehyde and immuno-fluorescence is performed.
(§1) Cultures were incubated with normal horse serum (1:50; Vector Labs) or about 20 min, rinsed and then incubated with primary antibody, microtubule associated-protein 2 (anti-mouse MAP-2; 1:1000; Chemicon) for about 2 h at about RT. Following primary antibody, cultures were rinsed and incubated with fluorescein anti-mouse IgG (rat absorbed; 1:50; Vector Labs) for about 1 h. After fluorescein incubation, the cultures were rinsed and read in PBS on a fluorescent plate reader (excitation: 485 nm; emission: 530 nm). A compound was regarded as active if the neurite outgrowth response is greater than the mean DMSO-treated control response on the same plate. The response to test compound was reported as percent of DMSO-treated control. The signal-to-noise separation is consistent: the fluorescence from DMSO control wells is at least twofold greater than blank wells.

[3] = test system: M17 human neuroblastoma cells; experiment: Neurite outgrowth assay in human M17 neuroblastoma cells; assay type: cell-based; conditions: MAP-2 immunofluorescence
Procedure: M17 human neuroblastoma cells were cultured in 1:1 ratio of EMEM and Ham's F12 with 1×NEAA and 10% FBS. The culture media contained 1×PSN antibiotic and was exchanged every other day, and the cells were passed in log phase near confluence.
as §1

Compound | DRG [1] | Rat Hippocampal Cell Response [2] | M17 Cell Response [3]
CCC(C)(C)C1=NNC(=O)[C@@H]2CCCN2C1=O [(1), 1H-pyrrolo[2,1-d][1,2,5]triazepine-1,5(2H)-dione, 4-(1,1-dimethylpropyl)-7,8,9,9a-tetrahydro-, (9aS)-] | + (An experiment was considered positive (+) if the instant compound induced neurites of ≧1 diameter of the DRG) | 123% of DMSO-treated control | 115% of DMSO-treated control
CCC(C)(C)C1=NN(CCCc2ccccc2)C(=O)[C@@H]2CCCN2C1=O [(2), 1H-pyrrolo[2,1-d][1,2,5]triazepine-1,5(2H)-dione, 4-(1,1-dimethylpropyl)-7,8,9,9a-tetrahydro-2-(3-phenylpropyl)-, (9aS)-] |  | <100% of DMSO-treated control | <100% of DMSO-treated control
CCC(C)(C)C1=NN(CCCc2cccnc2)C(=O)[C@@H]2CCCN2C1=O [(3), 1H-pyrrolo[2,1-d][1,2,5]triazepine-1.5(2H)-dione, 4-(1,1-dimethylpropyl)-7,8,9,9a-tetrahydro-2-[3-(3-pyridinyl)propyl]-, (9aS)-] |  | 145% of DMSO-treated control | <100% of DMSO-treated control
CCC(C)(C)C1=NNC(=O)C2CCCCN2C1=O (stereo not shown) [(4)] |  | 140% of DMSO-treated control | <100% of DMSO-treated control
O=C1NN=C(c2cccs2)C(=O)N2CSC[C@@H]12 [(5), 1H,7H-thiazolo[4,3-d][1,2,5]triazepine-1,5(2H)-dione, 9,9a-dihydro-4-(2-thienyl)-, (9aR)-] |  | 105% of DMSO-treated control | <100% of DMSO-treated control
O=C1[C@@H]2CSCN2C(=O)C(c2cccs2)=NN1CCC(c1ccccc1)c1ccccc1 [(6), 1H,7H-thiazolo[4,3-d][1,2,5]triazepine-1,5(2H)-dione, 2-(3,3-diphenylpropyl)-9,9a-dihydro-4-(2-thienyl)-, (9aR)-] |  | 105% of DMSO-treated control | <100% of DMSO-treated control
